In patent US20230201245A1, “COMPOSITIONS AND METHODS FOR TREATING VIRUS INFECTION” (CZ BIOHUB SF, LLC, priority 2020, published 2023):
Entries after “also recorded” stand apart in the source; their conditions may differ. Read-outs that look alike come from different tables or passages of the source.

Columns and labels:
ZIKV [1] = assay type: cell-based, ZIKV PRVABC59
DENV = assay type: cell-based, DENV-2 strain 16681
[2] = test system: ebola, chikungunya, influenza and ZIKV; details: cited from earlier work
[3] = test system: ZIKV replication complexes; test: In vitro replication assay with crude replication complexes and clickable uridine analog (5EU); assay type: biochemical; details: crude replication complexes from ZIKV-infected cells
ZIKV [4] = test: Quantification of (+)vRNA and viral particles by qPCR and plaque assays, ZIKV-infected cells; assay type: cell-based; details: added at 24 h, analyzed at 36 hpi
PV = assay type: cell-based, PV-1 Mahoney
ZIKV NS5 and E = assay type: cell-based; details: added at 24 h, analyzed at 36 hpi; compared to CHX or Puro
[5] = test system: ZIKV RNA translation initiation; test: Sucrose gradient polysome fractionation with qPCR of GAPDH mRNA and ZIKV plus-strand RNA; assay type: cell-based; details: then 30 nM RocA for 30 min

SMILES: CCOC(=O)c1ccc(-c2ncc(C(=O)OCC)s2)nc1 [PythiDC, Diethyl-pythiDC]
- virus production (ZIKV) (ZIKV [1]): inhibit virus replication
- virus production (DENV) (DENV): inhibit virus replication

SMILES: CC(/C=C/C(C)=C/[C@@H]1Cc2nc(cs2)[C@@H](C)C[C@@H](N)CC(=O)O[C@@H](C)C/C(C)=C/C=C\C(=O)O1)=C\CN(C)C [pateamine A]
- antiviral activity [2]: antiviral activity

SMILES: C[C@@]1(O)[C@H](O)[C@@H](CO)O[C@H]1n1cnc2c(N)ncnc21 [2′CMA]
- ZIKV replication in vitro (5EU labelling of newly synthesized RNA) [3]: reduced

SMILES: COc1ccc([C@@]23Oc4cc(OC)cc(OC)c4[C@]2(O)[C@H](O)[C@H](C(=O)N(C)C)[C@H]3c2ccccc2)cc1 [RocA, Rocaglamide A]
- accumulation of viral RNA or particles (ZIKV [4]): reduced viral replication
- virus production (ZIKV) (ZIKV [1]): strongly reduced; also recorded: blocks viral replication; also recorded: drastic dose-dependent decrease
- virus production (PV) (PV): only minor effects; also recorded: not PV
- accumulation of NS5 or E (ZIKV NS5 and E): mild inhibitory effect
- ZIKV replication in vitro (5EU labelling of newly synthesized RNA) [3]: reduced
- virus production (DENV) (DENV): strongly reduced; also recorded: blocks viral replication; also recorded: drastic dose-dependent decrease
- distribution of ZIKV plus-strand RNA in gradient fractions ([5]; ZIKV-infected cells 24 h): shift of ZIKV RNA to lighter fractions
- distribution of GAPDH mRNA in gradient fractions ([5]; mock or ZIKV-infected cells 24 h): did not affect

SMILES: C[C@@H]1C[C@@H]([C@H](O)CC2CC(=O)NC(=O)C2)C(=O)[C@@H](C)C1 [CHX, cycloheximide]
- accumulation of viral RNA or particles (ZIKV [4]): reduced viral replication

SMILES: COC(=O)[C@H]1[C@@H](O)[C@@]2(O)c3c(OC)cc(O[C@@H]4O[C@@H]([C@H](O)CO)CO[C@H]4OC)cc3O[C@@]2(c2ccc(OC)cc2)[C@@H]1c1ccccc1 [silvestrol]
- antiviral activity ([2]; against ebola, chikungunya, influenza and ZIKV, literature references): antiviral activity
